Measured values published in ChEMBL document CHEMBL3864191 (ACS Med Chem Lett, 2016).
“And” between values parts separate entries of the source, which are not always exact repeats. Equal entries are not always repeated. The source made the active and inactive calls. No cut-off for these calls is given here.

Columns and labels:
[1] = Cytotoxicity against human DU145 cells assessed as reduction in cell viability after 72 hrs by MTT assay; assay type: functional, cell-based, DU-145
[2] = molecular target: Apoptosis regulator Bcl-2 (Homo sapiens, UniProt P10415); test: Inhibition of FAM-Bid binding to human BCL2 expressed in Escherichia coli BL21 after 30 mins by fluorescence polarization assay
Apoptosis regulator Bcl-2, sequence (P10415 whole entry): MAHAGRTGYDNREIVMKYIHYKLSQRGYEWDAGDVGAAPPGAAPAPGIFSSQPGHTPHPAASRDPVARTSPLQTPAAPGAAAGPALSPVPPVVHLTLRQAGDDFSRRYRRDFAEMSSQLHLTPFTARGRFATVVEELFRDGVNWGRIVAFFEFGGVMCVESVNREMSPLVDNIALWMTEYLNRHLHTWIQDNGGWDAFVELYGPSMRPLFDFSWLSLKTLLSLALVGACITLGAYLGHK

cells [3] = conditions: Homo sapiens, MCF7, 72 h
Description: Cytotoxicity against human MCF7 cells assessed as reduction in cell viability after 72 hrs by MTT assay

[4] = Cytotoxicity against African green monkey Vero cells assessed as reduction in cell viability at 0.33 to 100 uM after 72 hrs by MTT assay; assay type: toxicity, cell-based; conditions: chlorocebus sabaeus
cells [5] = conditions: Homo sapiens, HCT-116, 72 h
Description: Cytotoxicity against human HCT116 cells assessed as reduction in cell viability after 72 hrs by MTT assay

[6] = Cytotoxicity against HEK293T cells assessed as reduction in cell viability at 0.33 to 100 uM after 72 hrs by MTT assay; assay type: toxicity, cell-based; conditions: human, hek-293t
[7] = Cytotoxicity against mouse CT26 cells assessed as reduction in cell viability after 72 hrs by MTT assay; assay type: functional, cell-based
[8] = molecular target: Induced myeloid leukemia cell differentiation protein Mcl-1 (Homo sapiens, UniProt Q07820); test: Inhibition of FAM-Bid binding to human MCL1 expressed in Escherichia coli BL21 after 30 mins by fluorescence polarization assay
Induced myeloid leukemia cell differentiation protein Mcl-1, sequence (Q07820 whole entry): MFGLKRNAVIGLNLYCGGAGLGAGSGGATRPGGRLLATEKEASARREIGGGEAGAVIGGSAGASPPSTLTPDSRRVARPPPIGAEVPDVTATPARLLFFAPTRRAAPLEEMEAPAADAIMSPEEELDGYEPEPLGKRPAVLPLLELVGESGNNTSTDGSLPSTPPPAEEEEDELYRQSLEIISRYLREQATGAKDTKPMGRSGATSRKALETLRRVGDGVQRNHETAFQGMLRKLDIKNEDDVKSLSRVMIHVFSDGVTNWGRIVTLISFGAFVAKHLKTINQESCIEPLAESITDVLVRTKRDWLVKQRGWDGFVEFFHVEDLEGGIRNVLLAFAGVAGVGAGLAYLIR

[9] = Cytotoxicity against human CNS cancer cells assessed as cell growth inhibition after 48 hrs by SRB assay; assay type: functional; conditions: Cancer cell lines
[10] = Cytotoxicity against human melanoma cells assessed as cell growth inhibition after 48 hrs by SRB assay; assay type: functional
[11] = Cytotoxicity against human colon cancer cells assessed as cell growth inhibition after 48 hrs by SRB assay; assay type: functional; conditions: Cancer cell lines
[12] = Cytotoxicity against human breast cancer cells assessed as cell growth inhibition after 48 hrs by SRB assay; assay type: functional; conditions: Cancer cell lines
NCI60 = test: Cytotoxicity against human NCI60 cells assessed as cell growth inhibition up to 10 uM after 48 hrs by SRB assay; assay type: functional, cell-based
[13] = Cytotoxicity against human non-small cell lung cancer cells assessed as cell growth inhibition after 48 hrs by SRB assay; assay type: functional; conditions: Cancer cell lines
[14] = Cytotoxicity against human ovarian cancer cells assessed as cell growth inhibition after 48 hrs by SRB assay; assay type: functional; conditions: Cancer cell lines
[15] = Cytotoxicity against human leukemia cells assessed as cell growth inhibition after 48 hrs by SRB assay; assay type: functional
[16] = Cytotoxicity against human renal cancer cells assessed as cell growth inhibition after 48 hrs by SRB assay; assay type: functional; conditions: Cancer cell lines
[17] = Cytotoxicity against human prostate cancer cells assessed as cell growth inhibition after 48 hrs by SRB assay; assay type: functional; conditions: Cancer cell lines
CT26 = test: Potency index, ratio of (-)-gossypol IC50 to compound IC50 for mouse CT26 cells; assay type: functional
HOP-92 = test: Cytotoxicity against human HOP92 cells assessed as cell growth inhibition after 48 hrs by SRB assay; assay type: functional, cell-based
RXF 393 = test: Cytotoxicity against human RXF393 cells assessed as cell growth inhibition after 48 hrs by SRB assay; assay type: functional, cell-based
SNB-19 = test: Cytotoxicity against human SNB19 cells assessed as cell growth inhibition after 48 hrs by SRB assay; assay type: functional, cell-based
U-251 = test: Cytotoxicity against human U251 cells assessed as cell growth inhibition after 48 hrs by SRB assay; assay type: functional, cell-based
[18] = Cytotoxicity against human NCI60 cells assessed as cell growth inhibition after 48 hrs by SRB assay; assay type: functional; conditions: NCI60, 48 h

Row | SMILES | IC50 ([1]; Homo sapiens, DU-145, 72 h) | IC50 [2] | Ki [2] | IC50 (cells [3]) | Activity [4] | IC50 (cells [5]) | Activity [6] | IC50 ([7]; Mus musculus, CT26, 72 h) | IC50 [8] | Ki [8] | growth inhibition (GI) (NCI60) | further results
1 | COC(=O)CCN/C=C1\C(=O)C(O)=C(C(C)C)c2cc(C)c(-c3c(C)cc4c(c3O)/C(=C/NCCC(=O)OC)C(=O)C(O)=C4C(C)C)c(O)c21 | 9.47 µM | 0.286 µM | 0.09 µM | 5.64 µM | Non-Toxic | 5.24 µM | Non-Toxic | 4.25 µM | 2.96 µM | 0.579 µM | – | –
2 | COC(=O)CN/C=C1\C(=O)C(O)=C(C(C)C)c2cc(C)c(-c3c(C)cc4c(c3O)/C(=C/NCC(=O)OC)C(=O)C(O)=C4C(C)C)c(O)c21 | – | 0.103 µM | 0.005 µM | – | Non-Toxic | – | Non-Toxic | – | 1.43 µM | 0.276 µM | Active | GI50 [9]: 1.63 µM; GI50 [10]: 2.84 µM; GI50 [11]: 1.63 µM; GI50 [12]: 2.44 µM; GI50 [13]: 1.65 µM; GI50 [14]: 1.74 µM; GI50 [15]: 1.88 µM; GI50 [16]: 2.19 µM; GI50 [17]: 1.92 µM
3 | COC(=O)CCCCCCN/C=C1\C(=O)C(O)=C(C(C)C)c2cc(C)c(-c3c(C)cc4c(c3O)/C(=C/NCCCCCCC(=O)OC)C(=O)C(O)=C4C(C)C)c(O)c21 | 11.4 µM | – | – | 8.95 µM | Non-Toxic | 13.1 µM | Non-Toxic | 5.59 µM | – | – | Active | –
4 | Cc1cc2c(c(O)c1-c1c(C)cc3c(c1O)/C(=C/NCc1ccccc1)C(=O)C(O)=C3C(C)C)/C(=C/NCc1ccccc1)C(=O)C(O)=C2C(C)C | 21.9 µM | – | – | > 100 µM | – | 83.1 µM | – | > 100 µM | – | – | Active | –
5 | Cc1cc2c(c(O)c1-c1c(C)cc3c(c1O)/C(=C/NCc1ccco1)C(=O)C(O)=C3C(C)C)/C(=C/NCc1ccco1)C(=O)C(O)=C2C(C)C | 15.5 µM | – | – | > 100 µM | – | 42.4 µM | – | > 100 µM | – | – | Active | –
6 | Cc1cc2c(c(O)c1-c1c(C)cc3c(c1O)/C(=C/NC(C)(C)C(C)(C)C)C(=O)C(O)=C3C(C)C)/C(=C/NC(C)(C)C(C)(C)C)C(=O)C(O)=C2C(C)C | > 100 µM | – | – | > 100 µM | – | > 100 µM | – | 5.4 µM | – | – | Active | –
7 | Cc1cc2c(c(O)c1-c1c(C)cc3c(c1O)/C(=C/NC(C)(C)C)C(=O)C(O)=C3C(C)C)/C(=C/NC(C)(C)C)C(=O)C(O)=C2C(C)C | 17.2 µM | – | – | > 100 µM | – | > 100 µM | – | 12.8 µM | – | – | Active | –
8 | Cc1cc2c(c(O)c1-c1c(C)cc3c(c1O)/C(=C/NCCCC(=O)O)C(=O)C(O)=C3C(C)C)/C(=C/NCCCC(=O)O)C(=O)C(O)=C2C(C)C | 18.1 µM | 0.596 µM | 0.235 µM | 20 µM | Non-Toxic | 32.3 µM | Non-Toxic | 28.8 µM | 0.661 µM | 0.094 µM | – | –
9 | Cc1cc2c(c(O)c1-c1c(C)cc3c(c1O)/C(=C/NCCCCCCC(=O)O)C(=O)C(O)=C3C(C)C)/C(=C/NCCCCCCC(=O)O)C(=O)C(O)=C2C(C)C | 19.1 µM | – | – | 11.5 µM | Non-Toxic | 17.3 µM | Non-Toxic | 2.08 µM | – | – | – | Ratio IC50 (CT26): 11
10 | Cc1cc2c(c(O)c1-c1c(C)cc3c(c1O)/C(=C/NCC(=O)O)C(=O)C(O)=C3C(C)C)/C(=C/NCC(=O)O)C(=O)C(O)=C2C(C)C | 34.8 µM | 0.573 µM | 0.224 µM | 14.4 µM | Non-Toxic | 26.8 µM | Non-Toxic | 48.9 µM | 0.521 µM | 0.121 µM | Active | –
11 | COC(=O)CCCN/C=C1\C(=O)C(O)=C(C(C)C)c2cc(C)c(-c3c(C)cc4c(c3O)/C(=C/NCCCC(=O)OC)C(=O)C(O)=C4C(C)C)c(O)c21 (stereo in doubt; 16) | – | – | – | – | – | – | – | – | – | – | Active | –
12 | COC(=O)CCCCN/C=C1\C(=O)C(O)=C(C(C)C)c2cc(C)c(-c3c(C)cc4c(c3O)/C(=C/NCCCCC(=O)OC)C(=O)C(O)=C4C(C)C)c(O)c21 | 7.36 µM | 0.483 µM | 0.182 µM | 8.22 µM | Non-Toxic | 3.38 µM | Non-Toxic | 16.6 µM | 0.74 µM | 0.139 µM | Active | GI50 [9]: 1.27 µM; GI50 [10]: 1.42 µM; GI50 [11]: 1 µM; GI50 [12]: 1.08 µM; growth inhibition (GI) (HOP-92): Active; GI50 [13]: 1.05 µM; GI50 [14]: 1.26 µM; growth inhibition (GI) (RXF 393): Active; growth inhibition (GI) (SNB-19): Active; growth inhibition (GI) (U-251): Active; GI50 [15]: 0.81 µM; GI50 [16]: 1.14 µM; GI50 [17]: 1.09 µM
13 | Cc1cc2c(c(O)c1-c1c(C)cc3c(c1O)/C(=C/NC1CCCCC1)C(=O)C(O)=C3C(C)C)/C(=C/NC1CCCCC1)C(=O)C(O)=C2C(C)C | 20.7 µM | – | – | > 100 µM | – | 80.3 µM | – | 25.2 µM | – | – | Active | –
14 | COC(=O)CCCCCN/C=C1\C(=O)C(O)=C(C(C)C)c2cc(C)c(-c3c(C)cc4c(c3O)/C(=C/NCCCCCC(=O)OC)C(=O)C(O)=C4C(C)C)c(O)c21 | 8.56 µM | 0.84 µM | 0.348 µM | 11.5 µM | Non-Toxic | 0.64 µM | Non-Toxic | 13.8 µM | 1.02 µM | 0.195 µM | Active | GI50 [9]: 1.46 µM; GI50 [10]: 2.35 µM; GI50 [11]: 1.44 µM; GI50 [12]: 1.72 µM; GI50 [13]: 1.51 µM; GI50 [14]: 2.65 µM; GI50 [15]: 1.03 µM; GI50 [16]: 2.08 µM; GI50 [17]: 1.41 µM
15 | Cc1cc2c(c(O)c1-c1c(C)cc3c(c1O)/C(=C/Nc1ccc(C(C)(C)C)cc1)C(=O)C(O)=C3C(C)C)/C(=C/Nc1ccc(C(C)(C)C)cc1)C(=O)C(O)=C2C(C)C | > 100 µM | – | – | > 100 µM | – | > 100 µM | – | 12.8 µM | – | – | Active | –
16 | Cc1cc2c(c(O)c1-c1c(C)cc3c(c1O)/C(=C/NCCCCC(=O)O)C(=O)C(O)=C3C(C)C)/C(=C/NCCCCC(=O)O)C(=O)C(O)=C2C(C)C | 20.7 µM | 0.458 µM | 0.171 µM | 15.9 µM | Non-Toxic | 22.2 µM | Non-Toxic | 4.46 µM | 0.478 µM | 0.085 µM | – | –
17 | CC1(C)CCC(CN2CCN(c3ccc(C(=O)NS(=O)(=O)c4ccc(NCC5CCOCC5)c([N+](=O)[O-])c4)c(Oc4cnc5[nH]ccc5c4)c3)CC2)=C(c2ccc(Cl)cc2)C1 [VENETOCLAX] | – | – | – | – | – | – | – | – | > 4 µM | > 0.78 µM | – | GI50 [9]: 3.35 µM; GI50 [10]: 1.75 µM; GI50 [11]: 2.85 µM; GI50 [12]: 2.77 µM; GI50 [13]: 2.7 µM; GI50 [18]: 0.2 to 5.1 µM; GI50 [14]: 3.33 µM; GI50 [15]: 2.11 µM; GI50 [16]: 2.6 µM; GI50 [17]: 3.51 µM
18 | Cc1cc2c(C(C)C)c(O)c(O)c(C=O)c2c(O)c1-c1c(C)cc2c(C(C)C)c(O)c(O)c(C=O)c2c1O [GOSSYPOL] | – | – | – | 54 µM | Toxic | 3.59 µM | Toxic | – | 0.856 µM | 0.162 µM | – | IC50 ([1]; du-145): 7.97 µM and 19.2 µM and 7.93 µM; GI50 [9]: 2.97 µM; GI50 [10]: 3.22 µM; GI50 [11]: 3.19 µM; GI50 [13]: 2.85 µM; GI50 [18]: 0.8 to 5.1 µM; GI50 [14]: 3.5 µM; IC50 ([7]; ct26): 23.2 µM and 61.9 µM and 46.8 µM; GI50 [15]: 2.47 µM; GI50 [16]: 3.16 µM
